Measurements taken from ChEMBL document CHEMBL3991601, “The target landscape of clinical kinase drugs” (Science, 2017).
Activity calls are given as the source filed them. Rule as the data show it, for most assays here: actives have a measured Kd and inactives only a lower limit.

Experiments:
[1] = target: MAP kinase-activated protein kinase 2 (Homo sapiens, UniProt P49137)
[2] = target: Receptor-interacting serine/threonine-protein kinase 3 (Homo sapiens, UniProt Q9Y572)
Deoxycytidine kinase = Deoxycytidine kinase (Homo sapiens, UniProt P27707)
Sequence of Deoxycytidine kinase (P27707 whole entry): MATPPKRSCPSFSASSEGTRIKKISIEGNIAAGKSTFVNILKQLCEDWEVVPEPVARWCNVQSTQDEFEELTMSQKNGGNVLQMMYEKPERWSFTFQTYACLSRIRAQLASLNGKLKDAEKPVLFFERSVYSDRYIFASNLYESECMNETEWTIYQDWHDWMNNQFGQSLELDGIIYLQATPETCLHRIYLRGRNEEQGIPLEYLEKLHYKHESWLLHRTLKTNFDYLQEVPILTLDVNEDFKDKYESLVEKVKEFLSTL

[3] = target: Tyrosine-protein kinase SYK (Homo sapiens, UniProt P43405)
[4] = target: T1, Phenylalanine--tRNA ligase beta subunit (Homo sapiens, UniProt Q9NSD9)
T1 sequence (Q9NSD9 whole entry): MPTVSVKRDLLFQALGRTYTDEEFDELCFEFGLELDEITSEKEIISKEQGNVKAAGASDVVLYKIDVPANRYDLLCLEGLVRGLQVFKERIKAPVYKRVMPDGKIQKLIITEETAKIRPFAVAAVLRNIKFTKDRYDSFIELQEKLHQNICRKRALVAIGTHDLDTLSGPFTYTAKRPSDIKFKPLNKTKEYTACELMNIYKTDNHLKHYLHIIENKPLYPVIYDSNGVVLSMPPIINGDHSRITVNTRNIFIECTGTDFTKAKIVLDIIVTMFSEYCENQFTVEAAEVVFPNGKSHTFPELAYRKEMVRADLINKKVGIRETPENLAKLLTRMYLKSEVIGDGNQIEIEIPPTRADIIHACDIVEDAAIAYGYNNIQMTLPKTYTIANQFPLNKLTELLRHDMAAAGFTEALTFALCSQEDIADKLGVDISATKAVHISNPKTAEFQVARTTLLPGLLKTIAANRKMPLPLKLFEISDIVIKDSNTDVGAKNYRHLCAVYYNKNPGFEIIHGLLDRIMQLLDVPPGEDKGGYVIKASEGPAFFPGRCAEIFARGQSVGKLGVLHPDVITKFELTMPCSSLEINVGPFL

[5] = target: T2, Mitogen-activated protein kinase kinase kinase 2 (Homo sapiens, UniProt Q9Y2U5)
T2 sequence (Q9Y2U5 whole entry): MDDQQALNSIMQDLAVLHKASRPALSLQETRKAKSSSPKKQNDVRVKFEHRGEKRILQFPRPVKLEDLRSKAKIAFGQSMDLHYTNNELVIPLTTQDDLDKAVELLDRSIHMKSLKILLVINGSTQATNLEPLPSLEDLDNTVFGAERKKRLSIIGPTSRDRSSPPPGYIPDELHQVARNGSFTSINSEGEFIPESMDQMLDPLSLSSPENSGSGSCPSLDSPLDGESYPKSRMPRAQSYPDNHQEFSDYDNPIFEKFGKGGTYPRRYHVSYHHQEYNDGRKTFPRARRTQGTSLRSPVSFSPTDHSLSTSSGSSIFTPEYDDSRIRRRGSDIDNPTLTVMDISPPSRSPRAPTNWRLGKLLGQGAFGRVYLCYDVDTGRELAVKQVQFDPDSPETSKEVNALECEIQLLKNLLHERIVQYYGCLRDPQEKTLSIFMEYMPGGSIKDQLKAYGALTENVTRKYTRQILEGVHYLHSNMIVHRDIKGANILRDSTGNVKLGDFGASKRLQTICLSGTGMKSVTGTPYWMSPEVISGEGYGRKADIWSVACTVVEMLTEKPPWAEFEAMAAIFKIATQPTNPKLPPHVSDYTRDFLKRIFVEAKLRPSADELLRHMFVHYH

[6] = target: Tyrosine-protein kinase HCK (Homo sapiens, UniProt P08631)
Sequence of Tyrosine-protein kinase HCK (P08631 whole entry): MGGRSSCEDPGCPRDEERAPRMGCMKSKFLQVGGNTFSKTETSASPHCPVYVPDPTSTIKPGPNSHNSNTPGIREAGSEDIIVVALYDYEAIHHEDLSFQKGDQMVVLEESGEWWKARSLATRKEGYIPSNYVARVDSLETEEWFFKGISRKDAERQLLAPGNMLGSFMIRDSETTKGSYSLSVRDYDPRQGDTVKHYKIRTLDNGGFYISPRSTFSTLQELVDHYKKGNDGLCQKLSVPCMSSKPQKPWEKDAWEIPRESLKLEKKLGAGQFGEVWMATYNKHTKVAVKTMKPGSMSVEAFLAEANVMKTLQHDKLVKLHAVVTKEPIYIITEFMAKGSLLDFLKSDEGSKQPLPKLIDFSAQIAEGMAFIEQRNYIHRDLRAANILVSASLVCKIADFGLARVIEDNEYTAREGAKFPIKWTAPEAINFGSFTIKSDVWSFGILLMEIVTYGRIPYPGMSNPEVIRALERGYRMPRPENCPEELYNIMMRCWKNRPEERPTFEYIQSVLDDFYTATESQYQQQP

[7] = target: T3, Acyl-CoA dehydrogenase family member 11 (Homo sapiens, UniProt Q709F0)
T3 sequence (Q709F0 whole entry): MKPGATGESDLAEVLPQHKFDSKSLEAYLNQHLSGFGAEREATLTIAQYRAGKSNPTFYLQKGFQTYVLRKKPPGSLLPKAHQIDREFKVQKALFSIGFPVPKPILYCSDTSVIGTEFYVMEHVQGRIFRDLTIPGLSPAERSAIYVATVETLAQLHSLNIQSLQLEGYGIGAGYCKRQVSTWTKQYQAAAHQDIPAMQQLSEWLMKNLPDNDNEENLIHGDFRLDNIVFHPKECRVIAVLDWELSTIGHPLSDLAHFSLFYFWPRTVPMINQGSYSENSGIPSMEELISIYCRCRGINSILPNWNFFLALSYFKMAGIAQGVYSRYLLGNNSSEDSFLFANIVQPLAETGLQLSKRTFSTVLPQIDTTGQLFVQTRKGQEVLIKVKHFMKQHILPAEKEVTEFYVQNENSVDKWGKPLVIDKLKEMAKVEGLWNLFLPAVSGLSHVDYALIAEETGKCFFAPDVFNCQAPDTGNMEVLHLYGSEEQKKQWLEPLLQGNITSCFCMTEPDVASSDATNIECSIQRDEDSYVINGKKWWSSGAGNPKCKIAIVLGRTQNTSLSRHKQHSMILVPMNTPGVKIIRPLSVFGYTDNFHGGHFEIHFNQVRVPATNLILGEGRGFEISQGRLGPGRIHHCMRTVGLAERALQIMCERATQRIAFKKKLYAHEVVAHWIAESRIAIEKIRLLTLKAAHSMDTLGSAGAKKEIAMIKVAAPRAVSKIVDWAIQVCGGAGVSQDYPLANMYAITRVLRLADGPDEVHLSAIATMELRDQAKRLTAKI

[8] = target: Insulin-like growth factor 1 receptor (Homo sapiens, UniProt P08069)
Sequence of Insulin-like growth factor 1 receptor (P08069 31-736 limits assumed): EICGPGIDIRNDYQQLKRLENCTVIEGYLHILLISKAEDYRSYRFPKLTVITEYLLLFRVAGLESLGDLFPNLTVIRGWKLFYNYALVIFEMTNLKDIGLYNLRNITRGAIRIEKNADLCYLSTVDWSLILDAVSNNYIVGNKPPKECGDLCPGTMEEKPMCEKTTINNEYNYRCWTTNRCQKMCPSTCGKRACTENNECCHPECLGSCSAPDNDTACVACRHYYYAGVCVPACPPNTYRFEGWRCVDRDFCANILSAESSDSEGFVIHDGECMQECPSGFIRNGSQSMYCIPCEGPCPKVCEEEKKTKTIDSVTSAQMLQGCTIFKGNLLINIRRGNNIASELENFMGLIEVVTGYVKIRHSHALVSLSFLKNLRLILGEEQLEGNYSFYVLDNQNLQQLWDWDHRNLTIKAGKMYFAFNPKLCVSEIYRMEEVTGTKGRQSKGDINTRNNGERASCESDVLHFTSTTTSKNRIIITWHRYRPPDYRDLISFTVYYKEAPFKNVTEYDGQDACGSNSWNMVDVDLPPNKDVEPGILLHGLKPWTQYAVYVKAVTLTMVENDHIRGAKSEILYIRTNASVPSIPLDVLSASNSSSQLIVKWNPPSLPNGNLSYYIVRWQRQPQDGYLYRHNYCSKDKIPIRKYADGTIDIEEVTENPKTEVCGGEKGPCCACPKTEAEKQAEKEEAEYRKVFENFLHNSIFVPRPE
Sequence of Insulin-like growth factor 1 receptor (P08069 741-1367 limits assumed): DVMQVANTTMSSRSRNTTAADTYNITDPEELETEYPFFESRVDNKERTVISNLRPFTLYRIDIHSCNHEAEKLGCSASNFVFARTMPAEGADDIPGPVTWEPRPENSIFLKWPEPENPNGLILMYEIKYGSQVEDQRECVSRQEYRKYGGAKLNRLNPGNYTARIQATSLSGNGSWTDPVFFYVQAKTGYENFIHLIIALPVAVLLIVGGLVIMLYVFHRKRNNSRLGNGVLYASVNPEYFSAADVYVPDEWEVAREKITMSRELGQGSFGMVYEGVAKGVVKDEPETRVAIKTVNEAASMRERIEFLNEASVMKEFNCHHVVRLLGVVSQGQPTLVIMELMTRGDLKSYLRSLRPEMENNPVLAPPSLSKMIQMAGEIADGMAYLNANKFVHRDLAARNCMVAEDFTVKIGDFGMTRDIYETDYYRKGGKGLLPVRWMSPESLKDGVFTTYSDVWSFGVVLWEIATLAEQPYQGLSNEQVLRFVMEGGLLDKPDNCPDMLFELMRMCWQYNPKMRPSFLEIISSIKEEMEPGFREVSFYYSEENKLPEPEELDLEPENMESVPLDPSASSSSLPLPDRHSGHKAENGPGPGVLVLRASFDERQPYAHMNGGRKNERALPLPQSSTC

[9] = target: Cyclin-dependent kinase 1 (Homo sapiens, UniProt P06493)
Sequence of Cyclin-dependent kinase 1 (P06493 whole entry): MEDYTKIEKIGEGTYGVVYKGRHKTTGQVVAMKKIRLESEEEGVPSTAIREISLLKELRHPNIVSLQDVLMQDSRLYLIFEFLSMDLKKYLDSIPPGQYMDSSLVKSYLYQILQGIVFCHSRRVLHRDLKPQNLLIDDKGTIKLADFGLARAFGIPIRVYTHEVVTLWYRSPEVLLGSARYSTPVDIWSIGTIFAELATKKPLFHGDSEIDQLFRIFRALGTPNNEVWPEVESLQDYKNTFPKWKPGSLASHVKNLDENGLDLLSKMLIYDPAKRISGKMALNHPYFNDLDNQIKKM
Also: in the data inactive means no Kd found up to 30 µM.

Sequence of Receptor-interacting serine/threonine-protein kinase 3 (Q9Y572 whole entry): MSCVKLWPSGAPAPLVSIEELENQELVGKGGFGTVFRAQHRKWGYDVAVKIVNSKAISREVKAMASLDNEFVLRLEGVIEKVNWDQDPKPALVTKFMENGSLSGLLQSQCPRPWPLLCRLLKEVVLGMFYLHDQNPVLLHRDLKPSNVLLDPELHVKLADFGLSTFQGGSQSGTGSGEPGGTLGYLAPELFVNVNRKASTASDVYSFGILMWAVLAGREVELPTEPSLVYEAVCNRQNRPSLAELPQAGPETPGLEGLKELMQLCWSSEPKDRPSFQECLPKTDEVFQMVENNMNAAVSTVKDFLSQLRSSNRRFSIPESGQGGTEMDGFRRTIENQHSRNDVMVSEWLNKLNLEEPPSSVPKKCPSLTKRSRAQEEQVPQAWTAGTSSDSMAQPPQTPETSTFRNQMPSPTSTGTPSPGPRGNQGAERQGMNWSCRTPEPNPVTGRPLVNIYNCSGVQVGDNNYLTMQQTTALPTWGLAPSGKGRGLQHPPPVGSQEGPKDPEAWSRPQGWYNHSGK
Sequence of MAP kinase-activated protein kinase 2 (P49137 whole entry): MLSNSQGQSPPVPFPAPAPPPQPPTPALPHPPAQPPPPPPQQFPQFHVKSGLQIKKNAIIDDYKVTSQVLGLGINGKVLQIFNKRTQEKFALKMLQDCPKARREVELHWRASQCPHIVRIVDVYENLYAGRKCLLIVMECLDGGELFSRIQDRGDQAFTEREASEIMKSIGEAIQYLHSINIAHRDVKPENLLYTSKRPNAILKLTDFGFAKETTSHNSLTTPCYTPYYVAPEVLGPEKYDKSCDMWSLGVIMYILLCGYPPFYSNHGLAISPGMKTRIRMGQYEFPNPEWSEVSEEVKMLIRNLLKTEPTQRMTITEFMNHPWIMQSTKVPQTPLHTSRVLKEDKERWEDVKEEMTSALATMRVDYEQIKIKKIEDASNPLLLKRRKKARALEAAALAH

SMILES | Kd [1] | Kd [2] | Kd (Deoxycytidine kinase) | Kd [3] | Kd [4] | Kd [5] | Kd [6] | Kd [7] | Kd [8] | Kd [9]
Cn1c(=O)c(F)c(Nc2ccc(I)cc2F)c2c(=O)n(C[C@@H](O)CO)cnc21 [TAK-733] | > 30 µM (inactive) | > 30 µM (inactive) | > 30 µM (inactive) | > 30 µM (inactive) | > 30 µM (inactive) | > 30 µM (inactive) | > 30 µM (inactive) | > 30 µM (inactive) | > 30 µM (inactive) | > 30 µM (inactive)
COc1cc2ncnc3c2cc1OCCCCCN(C)Cc1ccc(Br)cc1N3 [JNJ-26483327] | > 30 µM (inactive) | > 30 µM (inactive) | > 30 µM (inactive) | > 30 µM (inactive) | > 30 µM (inactive) | > 30 µM (inactive) | > 30 µM (inactive) | > 30 µM (inactive) | > 30 µM (inactive) | > 30 µM (inactive)
COc1cc2ncnc(Nc3ccc(F)c(Cl)c3)c2cc1NC(=O)/C=C/CN1CCCCC1 [DACOMITINIB ANHYDROUS] | > 30 µM (inactive) | 3.64 µM (active) | > 30 µM (inactive) | > 30 µM (inactive) | > 30 µM (inactive) | > 30 µM (inactive) | > 30 µM (inactive) | > 30 µM (inactive) | > 30 µM (inactive) | > 30 µM (inactive)
C#Cc1cccc(Nc2ncnc3cc4c(cc23)OCCOCCOCCO4)c1 [ICOTINIB] | > 30 µM (inactive) | > 30 µM (inactive) | > 30 µM (inactive) | > 30 µM (inactive) | > 30 µM (inactive) | > 30 µM (inactive) | > 30 µM (inactive) | > 30 µM (inactive) | > 30 µM (inactive) | > 30 µM (inactive)
Cc1cc(C(=O)Nc2cc(Oc3ccc4nc(NC(=O)C5CC5)cn4n3)ccc2C)n(C)n1 [TAK-593] | > 30 µM (inactive) | > 30 µM (inactive) | > 30 µM (inactive) | > 30 µM (inactive) | > 30 µM (inactive) | > 30 µM (inactive) | > 30 µM (inactive) | > 30 µM (inactive) | > 30 µM (inactive) | > 30 µM (inactive)
COc1cc2ncnc(Nc3ccc(O)cc3)c2cc1OC [WHI-P131] | > 30 µM (inactive) | > 30 µM (inactive) | > 30 µM (inactive) | > 30 µM (inactive) | > 30 µM (inactive) | > 30 µM (inactive) | > 30 µM (inactive) | > 30 µM (inactive) | > 30 µM (inactive) | > 30 µM (inactive)
O[C@H]1CC[C@H](Nc2ncc3nc(Nc4c(F)cc(F)cc4F)n([C@H]4CCOC4)c3n2)CC1 [TANZISERTIB] | 0.934 µM (active) | > 30 µM (inactive) | > 30 µM (inactive) | > 30 µM (inactive) | > 30 µM (inactive) | > 30 µM (inactive) | > 30 µM (inactive) | > 30 µM (inactive) | > 30 µM (inactive) | > 30 µM (inactive)
S=C(NCc1ccc2c(c1)OCO2)N1CCN(c2ncnc3c2oc2ccccc23)CC1 [AMUVATINIB] | > 30 µM (inactive) | > 30 µM (inactive) | > 30 µM (inactive) | > 30 µM (inactive) | > 30 µM (inactive) | > 30 µM (inactive) | > 30 µM (inactive) | > 30 µM (inactive) | > 30 µM (inactive) | > 30 µM (inactive)
CCOc1ccn(-c2ccc(F)cc2)c(=O)c1C(=O)Nc1ccc(Oc2ccnc(N)c2Cl)c(F)c1 [BMS-777607] | > 30 µM (inactive) | > 30 µM (inactive) | > 30 µM (inactive) | > 30 µM (inactive) | > 30 µM (inactive) | > 30 µM (inactive) | > 30 µM (inactive) | > 30 µM (inactive) | > 30 µM (inactive) | > 30 µM (inactive)
CC1(COc2ccc3c(c2)ncn3-c2ccc3cccc(N4CCC(N)CC4)c3n2)COC1 [CRENOLANIB] | > 30 µM (inactive) | > 30 µM (inactive) | > 30 µM (inactive) | > 30 µM (inactive) | > 30 µM (inactive) | > 30 µM (inactive) | > 30 µM (inactive) | > 30 µM (inactive) | > 30 µM (inactive) | 1.38 µM (active)
COc1cc(F)c(F)c(Nc2ccc(I)cc2F)c1NS(=O)(=O)C1(C[C@H](O)CO)CC1 [REFAMETINIB] | > 30 µM (inactive) | > 30 µM (inactive) | > 30 µM (inactive) | > 30 µM (inactive) | > 30 µM (inactive) | > 30 µM (inactive) | > 30 µM (inactive) | > 30 µM (inactive) | > 30 µM (inactive) | > 30 µM (inactive)
COc1cccc2cc(-c3nc([C@H]4CC[C@H](C(=O)O)CC4)n4ncnc(N)c34)[nH]c12 [OSI-027] | > 30 µM (inactive) | > 30 µM (inactive) | > 30 µM (inactive) | > 30 µM (inactive) | > 30 µM (inactive) | > 30 µM (inactive) | > 30 µM (inactive) | > 30 µM (inactive) | > 30 µM (inactive) | > 30 µM (inactive)
CNC(=O)c1ccc(Nc2ncc(C(F)(F)F)c(NCc3nccnc3N(C)S(C)(=O)=O)n2)cc1 [DEFACTINIB] | > 30 µM (inactive) | > 30 µM (inactive) | > 30 µM (inactive) | > 30 µM (inactive) | > 30 µM (inactive) | > 30 µM (inactive) | > 30 µM (inactive) | > 30 µM (inactive) | > 30 µM (inactive) | 2.01 µM
Cc1ccc(C(=O)Nc2ccc(Oc3cc4cnn(C)c4cc3-c3cn[nH]c3)c(F)c2)c(=O)n1-c1ccc(F)cc1 [MERESTINIB] | > 30 µM (inactive) | > 30 µM (inactive) | > 30 µM (inactive) | > 30 µM (inactive) | > 30 µM (inactive) | > 30 µM (inactive) | > 30 µM (inactive) | > 30 µM (inactive) | > 30 µM (inactive) | > 30 µM (inactive)
CC(C)(O)CC(=O)NCCn1ccc2ncnc(Nc3ccc(Oc4cccc(C(F)(F)F)c4)c(Cl)c3)c21 [TAK-285] | > 30 µM (inactive) | > 30 µM (inactive) | > 30 µM (inactive) | > 30 µM (inactive) | > 30 µM (inactive) | > 30 µM (inactive) | > 30 µM (inactive) | > 30 µM (inactive) | > 30 µM (inactive) | > 30 µM (inactive)
C=CC(=O)Nc1cc(Nc2nccc(-c3cn(C)c4ccccc34)n2)c(OC)cc1N(C)CCN(C)C [OSIMERTINIB] | > 30 µM (inactive) | > 30 µM (inactive) | > 30 µM (inactive) | > 30 µM (inactive) | > 30 µM (inactive) | > 30 µM (inactive) | > 30 µM (inactive) | – | > 30 µM (inactive) | > 30 µM (inactive)
